Assay results reported in US20110059848A1, “GRANULAR TURF SAFE HERBICIDAL COMPOSITIONS” (E. I. DU PONT DE NEMOURS AND COMPANY, priority 2007, published 2011).

Columns and labels:
[1] = test system: Bermudagrass; conditions: postemergence spray application, 31 g ai/ha; cited from earlier work
[2] = test system: cool-season turfgrasses; assay: Subsequent testing of spray applications on cool-season turfgrasses; assay type: in vivo; conditions: most cool-season turfgrasses
From the text: (§1) Accordingly new treatments using aminocyclopyrachlor and its derivatives are needed for successful selective weed control in turf comprising warm-season turfgrasses.

[3] = test system: Bermudagrass, Centipedegrass, St. Augustinegrass, Zoysiagrass; assay: Subsequent testing of spray applications on warm-season turfgrasses; assay type: in vivo; conditions: Zoysiagrass and mixtures
From the text: as §1

[4] = test system: weeds; conditions: mesotrione applied in a granular composition; cited from earlier work
[5] = test system: perennial ryegrass, fine fescue, Kentucky bluegrass, tall fescue, zoysiagrass, St. Augustinegrass, centipedegrass; conditions: cited from earlier work

Structure (SMILES) | injury to Bermudagrass [1] [%] | safety of spray applications to cool-season turfgrasses [2] | phytotoxicity of spray applications to warm-season turfgrasses [3] | weed control, granular composition [4] | damage/phytotoxicity to turfgrass varieties, formulations in spray form ([5]; mesotrione applied as a liquid in spray form) | phytotoxicity to turfgrasses, granular composition ([5]; mesotrione applied in a granular composition)
COC(=O)c1nc(C2CC2)nc(N)c1Cl [Compound 1, methyl 6-amino-5-chloro-2-cyclopropyl-4-pyrimidinecarboxylate] | 60 | sufficient safety | unacceptable phytotoxicity | – | – | –
CS(=O)(=O)c1ccc(C(=O)C2C(=O)CCCC2=O)c([N+](=O)[O-])c1 [mesotrione] | – | – | – | good weed control | unacceptable levels of damage/phytotoxicity | reduced to insignificant levels
